Measured values from US9212206B1, “4-Fluoro-Thio-containing inhibitors of APP2, compositions thereof and method of use” (priority 2014, dated 2015).
pIC50: −log10 of the molar value.

Key:
[1] = target: Human recombinant angiotensin-converting enzyme (hrACE) (Homo sapiens (Human), UniProt P12821); assay: Determination of human ACE activity (quenched fluorescent substrate ES005); format: biochemical; conditions: for pIC50: hrACE, substrate below Km, pH 7.4, 30° C., read-out: Binding affinity (IC50) ACE
Chain of Human recombinant angiotensin-converting enzyme (hrACE) (P12821 30-1306): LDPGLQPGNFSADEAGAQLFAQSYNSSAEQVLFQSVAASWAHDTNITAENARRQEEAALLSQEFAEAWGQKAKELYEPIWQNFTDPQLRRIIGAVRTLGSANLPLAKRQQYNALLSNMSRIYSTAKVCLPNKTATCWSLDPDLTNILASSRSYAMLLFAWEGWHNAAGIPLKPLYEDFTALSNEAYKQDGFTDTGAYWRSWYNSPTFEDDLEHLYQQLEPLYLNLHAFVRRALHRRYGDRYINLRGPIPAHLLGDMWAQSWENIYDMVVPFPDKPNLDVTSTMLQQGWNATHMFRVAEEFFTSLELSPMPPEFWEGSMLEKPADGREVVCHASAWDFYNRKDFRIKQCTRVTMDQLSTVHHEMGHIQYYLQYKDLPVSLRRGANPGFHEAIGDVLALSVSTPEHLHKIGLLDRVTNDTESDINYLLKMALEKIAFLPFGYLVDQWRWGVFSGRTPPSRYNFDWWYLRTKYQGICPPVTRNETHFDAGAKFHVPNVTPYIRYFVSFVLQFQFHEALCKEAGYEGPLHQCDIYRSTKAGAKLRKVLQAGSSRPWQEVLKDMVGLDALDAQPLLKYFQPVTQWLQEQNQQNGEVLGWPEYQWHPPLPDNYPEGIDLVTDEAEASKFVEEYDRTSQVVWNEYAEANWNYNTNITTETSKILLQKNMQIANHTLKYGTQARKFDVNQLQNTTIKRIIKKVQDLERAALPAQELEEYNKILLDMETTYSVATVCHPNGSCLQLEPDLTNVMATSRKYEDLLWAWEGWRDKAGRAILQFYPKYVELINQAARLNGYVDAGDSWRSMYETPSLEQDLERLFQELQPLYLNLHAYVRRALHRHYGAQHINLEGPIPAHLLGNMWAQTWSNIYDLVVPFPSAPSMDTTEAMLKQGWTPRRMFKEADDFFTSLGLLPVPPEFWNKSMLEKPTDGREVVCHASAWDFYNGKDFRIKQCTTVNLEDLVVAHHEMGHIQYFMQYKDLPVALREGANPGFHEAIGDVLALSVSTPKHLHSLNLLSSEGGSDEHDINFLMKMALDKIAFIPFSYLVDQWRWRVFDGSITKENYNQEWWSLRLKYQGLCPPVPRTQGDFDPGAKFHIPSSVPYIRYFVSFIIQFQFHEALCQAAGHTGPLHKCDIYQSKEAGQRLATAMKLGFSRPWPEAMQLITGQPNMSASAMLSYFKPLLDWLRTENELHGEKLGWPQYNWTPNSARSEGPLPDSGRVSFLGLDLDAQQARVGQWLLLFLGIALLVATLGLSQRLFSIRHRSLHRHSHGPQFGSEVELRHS
Procedure: Human recombinant angiotensin-converting enzyme (hrACE) was obtained from R&D Systems (Minneapolis, Minn.). Its enzyme activity was determined using the internally quenched fluorescent substrate ES005: (7-methoxycoumarin-4-yl)acetyl-Arg-Pro-Pro-Gly-Phe-Ser-Ala-Phe-(2,4-dinitrophenyl)-Lys (R&D Systems, Minneapolis, Minn.). The assay buffer was 0.1 M HEPES, pH 7.4, and the temperature was 30° C. The substrate concentration was below Km (≦40 μM). Enzyme rates were determined in an Fmax fluorescence plate reader (Molecular Devices, Sunnyvale, Calif.) using an excitation wavelength of 320 nm and an emission wavelength of 405 nm. The binding affinity of an inhibitor was estimated and expressed as IC50 values (the concentration that inhibits activity by 50%).

Male CD-1(ICR) mice = assay: Bilateral renal ischemia/reperfusion in mice; format: in vivo, mouse; conditions: for reduction of blood urea nitrogen (BUN) compared to saline: i.v. 5 min before reperfusion after 25 min ischemia, BUN after 2 days of reperfusion, apstatin 1.8 mg/kg, ST-115 10 μg/kg; for mice that died before the prespecified 2-day BUN measurement point: saline control 29% died early
Procedure: Previous studies have shown that the prototype APP2 inhibitor apstatin can greatly reduce ischemia/reperfusion damage in the heart. […] In this study, blood flow to both kidneys of the mouse was blocked for 25 min., producing ischemia. Blood flow was then restored (reperfusion). In order to determine the effects of inhibiting APP2 in this model of kidney damage, apstatin, ST-115, or saline (control) were administered intravenously 5 min. before reperfusion. After two days of reperfusion, blood urea nitrogen (BUN, a marker of kidney dysfunction) was measured. In FIG. 1, data are presented as the mean±standard error of the mean. Each drug was separately compared to the control by the unpaired t-test with Welch's correction. ** Apstatin vs. Saline, p<0.01; *** ST-115 vs. Saline, p<0.001.
Male CD-1(ICR) mice (36-47 g) from Harlan Laboratories (Indianapolis, Ind.) were used. Each mouse was anesthetized by the subcutaneous injection of 50 mg/kg sodium pentobarbital (Akorn Inc, Lake Forest, Ill.) and placed on a 37° C. warmer. For surgery, the abdomen was shaved and the mouse was moved to a warming plate with feedback temperature control (TCAT-2DF, Harvard Apparatus Holliston, Mass.). The body temperature of the mouse was maintained at 36.9±0.1° C. throughout the procedure. The skin of the abdomen was washed with alcohol, and a midline incision was made to expose the kidneys. After removing adipose tissue from the renal pedicles, a microaneurysm clamp was placed on each pedicle to block blood flow to/from both kidneys for 25 min. (referred to as the ischemia phase). At the 20 min. point, 0.15 ml of either saline or saline containing drug (apstatin or ST-115) was administered intravenously through the femoral vein. The doses were 1.8 mg/kg for apstatin and 10 μg/kg for ST-115. At 5 minutes after drug injection, the clamps were removed from the pedicles to restore blood flow to/from the kidneys (the reperfusion phase). After confirming reperfusion, a subcutaneous injection of saline was administered in the upper thigh for rehydration, and the incision was sutured closed. Regulated temperature control was maintained for at least the first 0.5 hours of reperfusion. The mouse was then placed on a 37° C. warmer to recover from the anesthetic and then moved to the home cage. After 2 days of reperfusion, the mouse was sacrificed by exsanguination. The blood was allowed to clot and then centrifuged to obtain serum. The serum was assayed for its concentration of urea (Blood Urea Nitrogen—BUN), a marker of kidney damage, using a kit from Stanbio (Boerne, Tex.). […] The BUN data points (20) were analyzed by comparing the values for each drug with those of the saline control using the unpaired t-test with Welch's correction (Graphpad Prism statistical package, La Jolla, Calif.).

[2] = target: Human aminopeptidase P2 (APP2) (Homo sapiens (Human), UniProt O43895); assay: Determination of human APP2 activity (quenched fluorescent substrate); format: biochemical; conditions: for pIC50: purified human kidney APP2, substrate 1 μM (=Km), pH 7.4, 30° C., read-out: Binding affinity (IC50) APP2; for IC50 ratio ACE/APP2: selectivity, ratio of IC50s for ACE/APP2
Chain of Human aminopeptidase P2 (APP2) (O43895 22-674): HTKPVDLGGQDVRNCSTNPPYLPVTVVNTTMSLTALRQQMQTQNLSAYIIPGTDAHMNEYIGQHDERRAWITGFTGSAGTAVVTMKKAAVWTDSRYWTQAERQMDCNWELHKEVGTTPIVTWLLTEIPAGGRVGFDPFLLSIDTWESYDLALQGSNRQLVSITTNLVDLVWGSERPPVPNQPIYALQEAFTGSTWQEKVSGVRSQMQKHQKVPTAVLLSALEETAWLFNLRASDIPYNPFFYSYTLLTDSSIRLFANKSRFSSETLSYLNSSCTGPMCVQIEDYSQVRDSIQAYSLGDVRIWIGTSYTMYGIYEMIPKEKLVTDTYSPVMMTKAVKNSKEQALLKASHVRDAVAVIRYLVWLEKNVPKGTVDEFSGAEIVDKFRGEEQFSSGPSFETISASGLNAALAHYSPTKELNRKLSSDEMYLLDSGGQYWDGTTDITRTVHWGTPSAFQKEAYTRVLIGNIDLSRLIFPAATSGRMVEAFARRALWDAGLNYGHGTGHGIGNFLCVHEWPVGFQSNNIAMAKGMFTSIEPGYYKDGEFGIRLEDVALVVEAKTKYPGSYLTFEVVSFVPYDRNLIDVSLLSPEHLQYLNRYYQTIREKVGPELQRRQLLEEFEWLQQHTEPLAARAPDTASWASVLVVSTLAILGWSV
Procedure: Human kidney tissue, which was obtained from the Cooperative Human Tissue Network, was the source of purified human APP2 as used herein. APP2 enzyme activity was measured during purification as described in Example 2B below. The membrane-bound APP2 was purified from human kidney tissue using the following steps: 1) kidney tissue was homogenized in 30 volumes of buffer containing Triton X-100 detergent and centrifuged; 2) the pellet was washed and suspended in buffer containing octyl-β-D-glucopyranoside detergent, and then centrifuged; 3) the supernatant was treated with 10 units of phosphatidylinositol-specific phospholipase C (Invitrogen, Eugene, Ga.) to remove the hydrophobic part of the glycosyl-phosphatidylinositol lipid membrane anchor from APP2, and then dialyzed; 4) the dialysate was passed through an octyl-Sepharose chromatography column; 5) the eluent was centrifuged and then concentrated by ultrafiltration in Amicon Ultra-15 Ultracel-10 k filters (Millipore Corp, Billerica, Mass.); 6) the retentate was dialyzed and applied to a HiTrap Q-Sepharose XL ion exchange chromatography column. Human APP2 enzyme activity was eluted with a linear KCl salt gradient.
Human aminopeptidase P2 (APP2) enzyme activity was determined using the internally quenched fluorescent substrate: H-Lys(2-aminobenzoyl)-Pro-Pro-p-nitroanilide (Bachem, Torrance, Calif.) at 1 μM (=Km) for inhibitor studies and 5 μM for enzyme purification assays. The assay buffer was 0.1 M HEPES, pH 7.4, and the assay temperature was 30° C. Cleavage of the substrate by the enzyme produces an increase in fluorescence due to the release of H-Lys(2-aminobenzoyl). Enzyme rates were determined in an F. fluorescence plate reader (Molecular Devices, Sunnyvale, Calif.) using an excitation wavelength of 320 nm and an emission wavelength of 405 nm. The binding affinity of an inhibitor was estimated and expressed as IC50 values (the concentration that inhibits activity by 50%).

isolated perfused heart = conditions: ischemia/reperfusion (Ersahin et al. 1999); cited from earlier work

Structure (SMILES) | IC50 for human ACE [1] | pIC50 [1] | reduction of blood urea nitrogen (BUN) compared to saline (Male CD-1(ICR) mice) [%] | mice that died before the prespecified 2-day BUN measurement point (Male CD-1(ICR) mice) | IC50 for human APP2 [2] [nM/L] | pIC50 [2] | IC50 ratio ACE/APP2 [2] | reduction of cardiac damage (isolated perfused heart) [%]
CC(C)C[C@H](S)C(=O)N1C[C@@H](F)C[C@H]1C(=O)N1CCC[C@H]1C(=O)N1CC[C@@H](C(=O)O)C1 [Formula III, [(S)-2-mercapto-4-methylpentanoyl]-4(S)-fluoro-Pro-Pro-[(3R)-β-Pro]-OH] | 68,000 nM/L | 4.17 | 56 | no apstatin or ST-115 treated mice died early | 3.7 | 8.43 | 18,000 | –
CC(C)C[C@H](S)C(=O)N1CCC[C@H]1C(=O)N1CCC[C@H]1C(=O)N(C)[C@@H](C)C(=O)O [Formula VII] | – | 6.19 | – | – | – | 8.41 | 160 | –
CC(C)C[C@H](S)C(=O)N1CCC[C@H]1C(=O)N1CCC[C@H]1C(=O)N1CCC[C@@H]1C(=O)O [Formula VI] | – | 4.92 | – | – | – | 8.01 | 1,200 | –
CC(C)C[C@H](S)C(=O)N1CCC[C@H]1C(=O)N1CCC[C@H]1C(=O)N1CC[C@H](C(=O)O)C1 [Formula V] | – | 4.31 | – | – | – | 7.59 | 1,900 | –
C[C@H](NC(=O)[C@@H]1CCCN1C(=O)[C@@H]1CCCN1C(=O)[C@@H](O)[C@H](N)Cc1ccccc1)C(N)=O [apstatin] | – | – | 49 | no apstatin or ST-115 treated mice died early | – | – | – | 74
